Reference: patent US9901609B2, “Medicinal plant extract” (UNIVERSITY OF ANTWERP, priority 2013, dated 2018)

Assay: Body weight monitoring during the in vivo experiment
Parameters: species or system dogs
Details: entire experiment (180 days)
Protocol: After each surgical procedure each dog received marbofloxacin 2% (1 mg/kg body weight) during 4 days. The body weight of all dogs was monitored during the entire experiment. Data are expressed as mean±SEM. Data were analyzed using one way analysis of variance (ANOVA), followed by the Bonferroni test or Kruskal-Wallis analysis and Dunnett T3. P≦0.05 was considered significant.

## C[C@H](CCC(=O)O)[C@H]1CC[C@H]2[C@@H]3[C@@H](O)C[C@@H]4C[C@H](O)CC[C@]4(C)[C@H]3CC[C@]12C [UDCA, ursodeoxycholic acid]
  body weight of the dogs over time: gained or lost no body weight over time
